Data: ChEMBL document CHEMBL1152284, “The contribution of plukenetione A to the anti-tumoral activity of Cuban propolis” (Bioorg Med Chem, 2008)
In brackets after ≈: the same amount, converted by molar mass. Activity calls are given as the source filed them. The rule behind the calls is not given here.

Experiments:
[1] = test system: K562; experiment: Cytotoxicity against human K562 cells after 24 hrs; type: functional, cell-based; details: K562, 24 h
[2] = test system: NCI-H460; experiment: Cytotoxicity against human H460 cells after 24 hrs; type: functional, cell-based; details: NCI-H460, 24 h
[3] = test system: HEK293; experiment: Cytotoxicity against HEK293 cells after 24 hrs; type: cell-based; details: Homo sapiens, HEK293, 24 h
[4] = test system: HT-29; experiment: Cytotoxicity against human HT-29 cells after 24 hrs; type: functional, cell-based; details: HT-29, 24 h
[5] = test system: HCT-8; experiment: Cytotoxicity against raltitrexed-resistant human HCT8 cells after 24 hrs; type: functional, cell-based; details: HCT-8, 24 h
[6] = test system: A2780; experiment: Cytotoxicity against cisplatin-resistant human A2780 cells after 24 hrs; type: functional, cell-based; details: A2780, 24 h
[7] = Cytotoxicity against cisplatin-resistant human LAN1 cells after 24 hrs; type: functional, cell-based; details: LAN1, 24 h
[8] = test system: Jurkat; experiment: Cytotoxicity against human Jurkat cells after 24 hrs; type: functional, cell-based
[9] = Cytotoxicity against human LAN1 cells after 24 hrs; type: functional, cell-based; details: LAN1, 24 h
[10] = test system: HCT-8; experiment: Cytotoxicity against SN38-resistant human HCT8 cells after 24 hrs; type: functional, cell-based; details: HCT-8, 24 h
[11] = test system: HT-29; experiment: Cytotoxicity against 5-FU-resistant human HT-29 cells after 24 hrs; type: functional, cell-based; details: HT-29, 24 h
[12] = Cytotoxicity against human M51 cells after 24 hrs; type: functional, cell-based; details: M51, 24 h
[13] = Cytotoxicity against 5-FU-resistant human LAN1 cells after 24 hrs; type: functional, cell-based; details: LAN1, 24 h
[14] = test system: A2780; experiment: Cytotoxicity against doxorubicin-resistant human A2780 cells after 24 hrs; type: functional, cell-based; details: A2780, 24 h
[15] = test system: MCF7; experiment: Cytotoxicity against doxorubicin-resistant human MCF7 cells after 24 hrs; type: functional, cell-based; details: MCF7, 24 h
[16] = test system: PC-3; experiment: Cytotoxicity against human PC3 cells after 24 hrs; type: functional, cell-based; details: PC-3, 24 h
[17] = test system: HCT-8; experiment: Cytotoxicity against human HCT8 cells after 24 hrs; type: functional, cell-based; details: HCT-8, 24 h
[18] = test system: LNCaP; experiment: Cytotoxicity against etoposide-resistant human LNCAP cells after 24 hrs; type: functional, cell-based
[19] = test system: HT-29; experiment: Cytotoxicity against SN38-resistant human HT-29 cells after 24 hrs; type: functional, cell-based; details: HT-29, 24 h
[20] = test system: LNCaP; experiment: Cytotoxicity against human LNCAP cells after 24 hrs; type: functional, cell-based
[21] = test system: MCF7; experiment: Cytotoxicity against human MCF7 cells after 24 hrs; type: functional, cell-based; details: MCF7, 24 h
[22] = Cytotoxicity against etoposide-resistant human LAN1 cells after 24 hrs; type: functional, cell-based; details: LAN1, 24 h
[23] = Cytotoxicity against human […] cells after 24 hrs; type: cell-based
[24] = Cytotoxicity against cisplatin-resistant human M51 cells after 24 hrs; type: functional, cell-based; details: M51, 24 h
[25] = test system: A2780; experiment: Cytotoxicity against human A2780 cells after 24 hrs; type: functional, cell-based; details: A2780, 24 h
[26] = test system: MCF7; experiment: Cytotoxicity against 5-FU-resistant human MCF7 cells after 24 hrs; type: functional, cell-based; details: MCF7, 24 h
[27] = Antimetastatic activity in mouse EAC cells xenografted in NMRI mouse assessed as metastatic colony formation in lungs at 20 mg/kg, ip daily for 9 days relative to control; type: functional, Ehrlich; details: route intraperitoneal
[28] = test system: HCT-8; experiment: Cell cycle arrest in human HCT8 cells assessed as accumulation at G2/M phase at IC50 after 24 hrs by FACS analysis relative to control; type: functional
[29] = test system: HCT-8; experiment: Decrease in topoisomerase 2 beta gene expression in human HCT8 cells at 2.5 times IC50 after 24 hrs by RT-PCR; type: functional, cell-based
[30] = target: T1, DNA topoisomerase 1 (Homo sapiens) (UniProt P11387); experiment: Inhibition of human topoisomerase 1-mediated relaxation of supercoiled pBR322 DNA up to 12.5 ug/mL after 30 mins by agarose gel electrophoresis
T1 sequence (whole entry): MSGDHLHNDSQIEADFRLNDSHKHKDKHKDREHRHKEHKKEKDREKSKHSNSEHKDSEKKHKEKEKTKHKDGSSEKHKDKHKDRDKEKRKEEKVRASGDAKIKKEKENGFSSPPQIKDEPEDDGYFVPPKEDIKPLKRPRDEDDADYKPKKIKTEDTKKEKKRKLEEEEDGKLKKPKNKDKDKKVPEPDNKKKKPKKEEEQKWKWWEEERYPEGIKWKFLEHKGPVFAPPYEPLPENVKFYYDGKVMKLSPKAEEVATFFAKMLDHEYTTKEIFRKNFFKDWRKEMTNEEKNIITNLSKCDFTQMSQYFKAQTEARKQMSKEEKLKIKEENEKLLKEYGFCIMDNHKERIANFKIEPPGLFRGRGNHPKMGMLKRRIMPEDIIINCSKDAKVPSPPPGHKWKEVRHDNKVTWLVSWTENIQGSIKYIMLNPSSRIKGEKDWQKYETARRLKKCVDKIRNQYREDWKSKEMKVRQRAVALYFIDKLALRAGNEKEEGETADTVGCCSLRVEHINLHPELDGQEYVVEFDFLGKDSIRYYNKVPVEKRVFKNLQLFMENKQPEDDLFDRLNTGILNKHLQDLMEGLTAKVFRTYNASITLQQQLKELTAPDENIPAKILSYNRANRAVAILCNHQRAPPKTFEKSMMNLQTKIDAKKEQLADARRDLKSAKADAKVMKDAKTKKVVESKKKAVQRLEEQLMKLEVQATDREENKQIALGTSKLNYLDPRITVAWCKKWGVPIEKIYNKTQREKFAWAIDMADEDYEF

[31] = target: T1, DNA topoisomerase 1 (Homo sapiens); experiment: Inhibition of human topoisomerase 1-mediated relaxation of supercoiled pBR322 DNA up to 6.25 ug/mL after 30 mins by agarose gel electrophoresis
[32] = test system: HCT-8; experiment: Induction of late apoptosis in [14C]D-thymidine labeled human HCT8 cells assessed DNA fragmentation treated at 2.5 times IC50 for 8 hrs measured after 24 hrs by liquid scintillation counter; type: functional, cell-based
[33] = test system: HCT-8; experiment: Cell cycle arrest in human HCT8 cells assessed as accumulation at G0/G1 phase at IC50 after 24 hrs by FACS analysis relative to control; type: functional
[34] = test system: HCT-8; experiment: Decrease in multidrug-resistant related protein gene expression in human HCT8 cells at 2.5 times IC50 after 24 hrs by RT-PCR; type: functional, cell-based
[35] = test system: HCT-8; experiment: Cell cycle arrest in human HCT8 cells assessed as accumulation at S phase at IC50 after 24 hrs by FACS analysis relative to control; type: functional
[36] = target: DNA polymerase I, thermostable (Thermus aquaticus, UniProt P19821); experiment: Inhibition of Taq DNA polymerase
Sequence of DNA polymerase I, thermostable (P19821 whole entry): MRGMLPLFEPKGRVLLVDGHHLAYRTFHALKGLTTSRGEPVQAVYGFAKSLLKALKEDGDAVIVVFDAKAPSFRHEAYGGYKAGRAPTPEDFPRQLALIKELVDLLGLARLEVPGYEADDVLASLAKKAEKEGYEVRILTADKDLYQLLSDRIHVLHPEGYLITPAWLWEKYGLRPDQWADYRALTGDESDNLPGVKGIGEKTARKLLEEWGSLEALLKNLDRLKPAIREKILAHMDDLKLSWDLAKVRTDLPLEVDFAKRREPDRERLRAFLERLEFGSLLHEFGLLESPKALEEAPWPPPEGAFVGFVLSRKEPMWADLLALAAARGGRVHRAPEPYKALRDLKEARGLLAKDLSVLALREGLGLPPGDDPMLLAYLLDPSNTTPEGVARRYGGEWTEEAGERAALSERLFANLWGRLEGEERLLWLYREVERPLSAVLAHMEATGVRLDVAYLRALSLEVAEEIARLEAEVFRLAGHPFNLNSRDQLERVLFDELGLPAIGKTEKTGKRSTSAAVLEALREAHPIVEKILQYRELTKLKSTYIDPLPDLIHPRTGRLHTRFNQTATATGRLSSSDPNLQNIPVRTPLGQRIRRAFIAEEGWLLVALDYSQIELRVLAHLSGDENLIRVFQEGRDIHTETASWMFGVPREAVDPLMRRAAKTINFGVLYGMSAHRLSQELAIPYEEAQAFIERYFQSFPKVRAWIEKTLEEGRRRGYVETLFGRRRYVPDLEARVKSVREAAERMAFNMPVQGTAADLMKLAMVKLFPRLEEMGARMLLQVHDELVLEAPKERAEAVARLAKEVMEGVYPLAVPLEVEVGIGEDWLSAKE

[37] = Inhibition of Moloney murine leukemia virus reverse transcriptase
[38] = Inhibition of HIV reverse transcriptase; set-up: species or system Human immunodeficiency virus
[39] = test system: HCT-8; experiment: Decrease in EGF receptor gene expression in human HCT8 cells at 2.5 times IC50 after 24 hrs by RT-PCR; type: functional, cell-based
[40] = test system: HCT-8; experiment: Induction of late apoptosis in [14C]D-thymidine labeled human HCT8 cells assessed DNA fragmentation treated at 10 times IC50 for 8 hrs measured after 24 hrs by liquid scintillation counter; type: functional, cell-based

Structure (SMILES): CC(C)=CCC1=C(O)[C@@]2(C(=O)c3ccccc3)C(=O)[C@](CC=C(C)C)(C[C@H](CC=C(C)C)C2(C)C)C1=O
- IC50 [1]: 4.2 µg/mL (≈ 8.35 µM)
- IC50 [2]: 4.21 µg/mL (≈ 8.37 µM)
- IC50 [3]: 4.2 µg/mL (≈ 8.35 µM)
- IC50 [4]: 5.25 µg/mL (≈ 10.4 µM)
- IC50 [5]: 4.44 µg/mL (≈ 8.83 µM)
- IC50 [6]: 6.23 µg/mL (≈ 12.4 µM)
- IC50 [7]: 8.44 µg/mL (≈ 16.8 µM)
- IC50 [8]: 4.6 µg/mL (≈ 9.15 µM)
- IC50 [9]: 8.2 µg/mL (≈ 16.3 µM)
- IC50 [10]: 4.07 µg/mL (≈ 8.1 µM)
- IC50 [11]: 5.18 µg/mL (≈ 10.3 µM)
- IC50 [12]: 5.7 µg/mL (≈ 11.3 µM)
- IC50 [13]: 8.24 µg/mL (≈ 16.4 µM)
- IC50 [14]: 6.75 µg/mL (≈ 13.4 µM)
- IC50 [15]: 4.28 µg/mL (≈ 8.51 µM)
- IC50 [16]: 2.01 µg/mL (≈ 4 µM)
- IC50 [17]: 4.23 µg/mL (≈ 8.41 µM)
- IC50 [18]: 1.81 µg/mL (≈ 3.6 µM)
- IC50 [19]: 3.5 µg/mL (≈ 6.96 µM)
- IC50 [20]: 2.12 µg/mL (≈ 4.22 µM)
- IC50 [21]: 4.37 µg/mL (≈ 8.69 µM)
- IC50 [22]: 9.18 µg/mL (≈ 18.3 µM)
- IC50 [23]: 21.7 µg/mL (≈ 43.2 µM)
- IC50 [24]: 4.77 µg/mL (≈ 9.49 µM)
- IC50 [25]: 9.2 µg/mL (≈ 18.3 µM)
- IC50 [26]: 3.3 µg/mL (≈ 6.56 µM)

Structure (SMILES): O=c1[nH]cc(F)c(=O)[nH]1 [FLUOROURACIL]
- Activity [27]: 23.8%

Structure (SMILES): COc1ccc([C@H]2COc3cc(O)ccc3C2)c(OC)c1O [MUCRONULATOL]
- IC50 [3]: 2.5 µg/mL (≈ 8.27 µM)
- IC50 [7]: 10.2 µg/mL (≈ 33.8 µM)
- IC50 [9]: 10.1 µg/mL (≈ 33.4 µM)
- IC50 [13]: 8.22 µg/mL (≈ 27.2 µM)
- IC50 [15]: > 50 µg/mL
- IC50 [17]: 2.6 µg/mL (≈ 8.6 µM)
- IC50 [21]: 2.52 µg/mL (≈ 8.34 µM)
- IC50 [22]: > 50 µg/mL

Structure (SMILES): CC(C)=CC[C@]12C[C@@H]3[C@H](C=C(C)C)[C@](CC=C(C)C)(C1=O)C(=O)[C@](C(=O)c1ccccc1)(C2=O)C3(C)C [PLUKENETIONE A]
- Activity [28]: 20.6%
- IC50 [2]: 13.4 µg/mL (≈ 26.8 µM)
- IC50 [3]: 32.1 µg/mL (≈ 64.1 µM)
- IC50 [4]: 12 µg/mL (≈ 24 µM)
- Activity [29]: Active
- IC50 [5]: 12.1 µg/mL (≈ 24.2 µM)
- IC50 [6]: 15.9 µg/mL (≈ 31.8 µM)
- Activity [30]: Active
- Activity [31]: Active
- Activity [32]: Active
- IC50 [8]: 5.28 µg/mL (≈ 10.5 µM)
- Activity [33]: 52.1%
- IC50 [10]: 11.7 µg/mL (≈ 23.3 µM)
- IC50 [11]: 14.2 µg/mL (≈ 28.4 µM)
- IC50 [12]: 6.53 µg/mL (≈ 13 µM)
- IC50 [14]: 14.5 µg/mL (≈ 28.9 µM)
- IC50 [15]: 15 µg/mL (≈ 29.9 µM)
- Activity [34]: Active
- Activity [35]: 4.3%
- IC50 [36]: 12.5 µM
- IC50 [17]: 12.9 µg/mL (≈ 25.8 µM)
- IC50 [18]: 1.72 µg/mL (≈ 3.44 µM)
- IC50 [19]: 13.3 µg/mL (≈ 26.6 µM)
- IC50 [37]: 1.5 µg/mL (≈ 3 µM)
- IC50 [38]: 1.5 µg/mL (≈ 3 µM)
- IC50 [20]: 1.98 µg/mL (≈ 3.95 µM)
- IC50 [21]: 16.3 µg/mL (≈ 32.5 µM)
- IC50 [23]: 15.7 µg/mL (≈ 31.4 µM)
- Activity [39]: Active
- IC50 [24]: 7.6 µg/mL (≈ 15.2 µM)
- IC50 [25]: 13.3 µg/mL (≈ 26.6 µM)
- Activity [40]: Active
- IC50 [26]: 10 µg/mL (≈ 20 µM)
